One assay addresses HDAC1 (Homo sapiens (Human), UniProt Q13547). Briefly: In vitro enzyme inhibition assay - HDAC (HDAC-Glo I/II), HDAC1. The class given is biochemical. Particulars: read-out: HDAC IC50 (nM) HDAC 1. The procedure: 2. In Vitro Enzyme Inhibition Assay—HDAC
The effect of the compound on the enzymatic activity of pan-HDAC and two isoforms (HDAC1 and HDAC8) was examined using the HDAC-Glo I/II Assay and Screening System assay to assess the level of inhibition of HDAC protease activity and selectivity in each isoform. The proteins and detection reagents were from the HDAC-Glo™ I/II Assay and Screening System (Promega). A 1 mM stock solution of the compound was prepared in DMSO and diluted in a 5-fold gradient to create a series of 8 concentrations, and a specific volume of the highest concentration was diluted 25 times with HDAC Buffer to obtain 4× working solution of the compound. […] The 384-well plate was then read on a multifunctional microplate reader, with the Luminescence channel selected to record Luminescence values (RLU). The inhibition rate was calculated using the following formula: […]
Note: ‘Negative’ refers to the group without the inhibitor; ‘Blank’ refers to the group without the enzyme.
The IC50 value was calculated by fitting the inhibition rate by GraphPad Prism software, employing log (inhibitor) vs. response-Variable Slope (four parameters) model.

In another assay the target is LSD1 (Homo sapiens (Human), UniProt O60341). The experiment in a line: In vitro enzyme inhibition assay - LSD1 (HTRF). The class given is biochemical. In general terms: In TR-FRET formats the signal depends on donor and acceptor labels being close together.
A further assay has as its target HDAC8 (Homo sapiens (Human), UniProt Q9BY41). The experiment in a line: In vitro enzyme inhibition assay - HDAC (HDAC-Glo I/II), HDAC8. The class given is biochemical. The conditions noted are these: read-out: HDAC IC50 (nM) HDAC 8. The method, boiled down: (§1)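 Eight compound concentrations (5-fold steps from a 1 mM DMSO stock) tested against pan-HDAC, HDAC1 and HDAC8 with HDAC-Glo I/II reagents, luminescence read-out. Percent inhibition normalized to no-inhibitor and no-enzyme wells; IC50 derived by four-parameter logistic fit.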

Another assay concerns the target pan-HDAC. Briefly: In vitro enzyme inhibition assay - HDAC (HDAC-Glo I/II), pan-HDAC. The class given is biochemical. An outline of the steps: as §1
The test system of the next assay is NCI-H69 cells. The experiment in a line: In vitro cell inhibition assay - NCI-H69 cell proliferation (CellTiter-Glo). Particulars: Homo sapiens, NCI-H69, H69 small cell lung cancer cell proliferation. The format is cell-based. The method, boiled down:
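Luminescence from CellTiter-Glo reagent served as the viability read-out after cells were exposed to compounds for 7 days at 37° C. Eight concentrations in a 5-fold series were tested in medium with 20% FBS. Inhibition was normalised to untreated and cell-free wells before IC50 fitting.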

A further assay relates to NCI-H1417 cells. Briefly: In vitro cell inhibition assay - H1417 cell proliferation (CellTiter-Glo). The class given is cell-based. Particulars: Homo sapiens, NCI-H1417, H1417 small cell lung cancer cell proliferation. An outline of the steps: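 Cells exposed to 8 compound concentrations (5-fold dilutions) in BEGM with 10% FBS for 7 days at 37° C., 5% CO2. Viable cells measured by CellTiter-Glo luminescence; inhibition versus no-inhibitor and no-cell controls, IC50 fitted.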
For orientation: In ATP-based viability assays light output follows the ATP content of the culture.

Another assay deals with NCI-H526 cells. Briefly: In vitro cell inhibition assay - NCI-H526 cell proliferation (CellTiter-Glo). The conditions noted are these: Homo sapiens, NCI-H526, 120 h, H526 small cell lung cancer cell proliferation, 5 days. The class given is cell-based. An outline of the steps:
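NCI-H526 cells plated at 1×10^3 per well overnight, then treated with 8 concentrations (5-fold dilutions) in RPMI-640 with 10% FBS for 5 days at 37° C., 5% CO2. Viable cells quantified by CellTiter-Glo luminescence; IC50 fitted from inhibition rates relative to no-inhibitor and no-cell controls.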

Each structure is given as a SMILES string. Structures can show the parent of a compound that is named as a salt.

Sequence of HDAC8 (Q9BY41 whole entry): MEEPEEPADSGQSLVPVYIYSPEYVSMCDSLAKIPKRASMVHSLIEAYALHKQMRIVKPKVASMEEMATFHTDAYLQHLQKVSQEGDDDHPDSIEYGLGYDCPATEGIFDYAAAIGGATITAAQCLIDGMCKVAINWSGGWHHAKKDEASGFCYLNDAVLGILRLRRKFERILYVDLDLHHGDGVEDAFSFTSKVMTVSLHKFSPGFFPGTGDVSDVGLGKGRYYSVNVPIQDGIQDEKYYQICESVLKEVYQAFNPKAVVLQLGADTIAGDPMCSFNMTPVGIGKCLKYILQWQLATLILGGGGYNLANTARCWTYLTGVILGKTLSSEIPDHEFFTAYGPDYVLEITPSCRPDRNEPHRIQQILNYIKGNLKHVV
Sequence of HDAC1 (Q13547 whole entry, canonical isoform): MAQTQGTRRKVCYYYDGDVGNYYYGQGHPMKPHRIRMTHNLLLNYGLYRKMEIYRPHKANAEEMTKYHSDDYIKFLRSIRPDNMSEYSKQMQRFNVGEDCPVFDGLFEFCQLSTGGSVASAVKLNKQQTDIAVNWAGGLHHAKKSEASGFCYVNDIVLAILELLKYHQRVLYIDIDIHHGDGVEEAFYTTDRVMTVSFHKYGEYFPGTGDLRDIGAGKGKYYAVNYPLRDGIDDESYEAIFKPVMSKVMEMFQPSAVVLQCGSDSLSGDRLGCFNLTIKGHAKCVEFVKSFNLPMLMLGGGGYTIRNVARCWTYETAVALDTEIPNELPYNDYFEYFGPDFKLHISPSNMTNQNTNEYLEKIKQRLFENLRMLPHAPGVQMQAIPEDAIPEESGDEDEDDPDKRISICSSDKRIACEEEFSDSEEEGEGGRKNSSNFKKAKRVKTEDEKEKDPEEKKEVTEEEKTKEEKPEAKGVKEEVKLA

As a reminder, the IC50 is the concentration at which inhibition is half-maximal. In the case of `N#Cc1ccc(-c2c(-c3ccc(/C=C/C(=O)NO)c(O)c3)cnc(N3CCC(N)CC3)c2C#N)cc1F` [Example 62, (E)-3-(4-(6-(4-Aminopiperidin-1-yl)-5-cyano-4-(4-cyano-3-fluorophenyl)pyridin-3-yl)-2-hydroxyphenyl)-N-hydroxyacrylamide hydrochloride], the IC50 on HDAC1 was determined as 17.3 nM; on LSD1, 0.49 nM; on HDAC8, 3190 nM; against pan-HDAC it was 5.53 nM; with NCI-H69 cells, 3220 nM; with NCI-H1417 cells, 9.86 nM. Moreover, the IC50 with NCI-H526 cells worked out at 1210 nM.
`COc1ccc(-c2cnc(N3CCC(NC(C)(C)c4ccc(/C=C/C(=O)NO)cc4)CC3)c(C#N)c2-c2ccc(C#N)c(F)c2)cc1O` [Example 179, (E)-3-(4-(2-((1-(3-Cyano-4-(4-cyano-3-fluorophenyl)-5-(3-hydroxy-4-methoxyphenyl)pyridin-2-yl)piperidin-4-yl)amino)propan-2-yl)phenyl)-N-hydroxyacrylamide formate]: the half-inhibitory concentration (IC50) was determined as 1.74 nM at HDAC1; 100 nM against LSD1; 374 nM on HDAC8; 3.1 nM on pan-HDAC; 2.75 nM in the assay on NCI-H69 cells; 3.66 nM in the assay with NCI-H1417 cells. This molecule also displayed an IC50 in the assay with NCI-H526 cells of 4.44 nM.
With `COc1ccc(-c2cnc(N3CCC(NCc4ccc(OCC(=O)NO)cc4)CC3)c(C#N)c2-c2ccc(C#N)c(F)c2)cc1O` [Example 181], the IC50 on HDAC1 was determined as 0.08 nM; at LSD1, 0.13 nM; at HDAC8, 75.1 nM; against pan-HDAC it was 2.11 nM; in the assay with NCI-H69 cells, 13.1 nM; in the assay with NCI-H1417 cells it was 2.93 nM. Further, the midpoint of inhibition in the assay on NCI-H526 cells, the IC50, lay at 28.4 nM.
In the case of `N#Cc1ccc(-c2c(-c3ccc4cn[nH]c4c3)cnc(N3CCC(NCc4ccc(/C=C/C(=O)NO)nc4)CC3)c2C#N)cc1F` [Example 182, (E)-3-(5-(((1-(3-Cyano-4-(4-cyano-3-fluorophenyl)-5-(1H-indazol-6-yl)pyridin-2-yl)piperidin-4-yl)amino)methyl)pyridin-2-yl)-N-hydroxyacrylamide formate], the IC50 came out at 1.3 nM at HDAC1; 0.09 nM on LSD1; 30.1 nM at HDAC8; 3.02 nM at pan-HDAC; 4.36 nM with NCI-H69 cells; 9.29 nM in the assay with NCI-H1417 cells. Also, 7.04 nM corresponded to half-maximal inhibition in the assay with NCI-H526 cells (IC50).
For the molecule `N#Cc1ccc(-c2c(-c3ccc4cn[nH]c4c3)cnc(N3CCC(NCc4cnc(/C=C/C(=O)NO)nc4)CC3)c2C#N)cc1F` [Example 184, (E)-3-(5-((1-(3-Cyano-4-(4-cyano-3-fluorophenyl)-5-(1H-indazol-6-yl)pyridin-2-yl)piperidin-4-yl)amino)methyl) pyrimidin-2-yl)-N-hydroxyacrylamide formate], the 50% inhibitory concentration (IC50) on HDAC1 is 1.69 nM; against LSD1 it was 0.09 nM; at HDAC8, 45.2 nM; at pan-HDAC it was 6.58 nM; in the assay with NCI-H69 cells, 8.97 nM; with NCI-H1417 cells, 10.2 nM. The molecule further gave an IC50 in the assay with NCI-H526 cells of 15.9 nM.
For `CC(C)(O)COc1ccc(-c2cnc(N3CCC(NCc4cnc(/C=C/C(=O)NO)nc4)CC3)c(C#N)c2-c2ccc(C#N)c(F)c2)cc1O` [Example 187, (E)-3-(5-(((1-(3-Cyano-4-(4-cyano-3-fluorophenyl)-5-(3-hydroxy-4-(2-hydroxy-2-methylpropoxy)phenyl)pyridin-2-yl)piperidin-4-yl)amino)methyl)pyrimidin-2-yl)-N-hydroxyacrylamide formate], the half-inhibitory concentration (IC50) at HDAC1 turned out to be 1.98 nM; at LSD1, 4.11 nM; on HDAC8, 15.5 nM; at pan-HDAC it was 3.71 nM; in the assay with NCI-H69 cells, 14.8 nM; in the assay with NCI-H1417 cells, 4.89 nM. Moreover, in the assay on NCI-H526 cells, the half-inhibitory concentration (IC50) was 20.9 nM.
In the case of `CC(C)(O)COc1ccc(-c2cnc(N3CCC(NCc4ccc(CCC(=O)NO)cc4)CC3)c(C#N)c2-c2ccc(C#N)c(F)c2)cc1O` [Example 188, 3-(4-(((1-(3-Cyano-4-(4-cyano-3-fluorophenyl)-5-(3-hydroxy-4-(2-hydroxy-2-methylpropoxy)phenyl)pyridin-2-yl)piperidin-4-yl)amino)methyl)phenyl)-N-hydroxypropanamide formate], the IC50 at HDAC1 is 3.06 nM; at LSD1 it was 0.3 nM; on HDAC8, 198 nM; against pan-HDAC, 5.07 nM; in the assay with NCI-H69 cells it was 29.7 nM; with NCI-H1417 cells it was 1.74 nM. This molecule also came in with a half-inhibitory concentration (IC50) in the assay on NCI-H526 cells of 80.4 nM.
For the molecule `CC(C)(O)COc1ccc(-c2cnc(N3CCC(NCc4ccc(/C=C/C(=O)NO)c(C#N)c4)CC3)c(C#N)c2-c2ccc(C#N)c(F)c2)cc1O` [Example 189, (E)-3-(2-Cyano-4-((1-(3-cyano-4-(4-cyano-3-fluorophenyl)-5-(3-hydroxy-4-(2-hydroxy-2-methylpropoxy)phenyl)pyridin-2-yl)piperidin-4-yl)amino)methyl) phenyl)-N-hydroxyacrylamide formate], the IC50 at HDAC1 is 13.4 nM; against LSD1 it was 4.11 nM; on HDAC8 it was 130 nM; against pan-HDAC, 7.8 nM; with NCI-H69 cells it was 39.2 nM; in the assay on NCI-H1417 cells, 6.31 nM. This molecule yielded an IC50 in the assay with NCI-H526 cells of 27.8 nM.
Regarding `COc1ccc(-c2cnc(N3CCC(NCc4ccc(CCC(=O)NO)nc4)CC3)c(C#N)c2-c2ccc(C#N)c(F)c2)cc1O` [Example 191, 3-(5-(((1-(3-Cyano-4-(4-cyano-3-fluorophenyl)-5-(3-hydroxy-4-methoxyphenyl)pyridin-2-yl)piperidin-4-yl)amino)methyl)pyridin-2-yl)-N-hydroxypropanamide formate], the IC50 amounted to 0.54 nM at HDAC1; 2.24 nM on LSD1; 37.5 nM at HDAC8; 2.17 nM at pan-HDAC; 24.6 nM in the assay with NCI-H69 cells; 3.38 nM in the assay with NCI-H1417 cells. Half-maximal inhibition in the assay on NCI-H526 cells (IC50) required 25.9 nM.
Consider `N#Cc1ccc(-c2c(-c3ccc(N4CCOCC4)c(O)c3)cnc(N3CCC(NCc4ccc(/C=C/C(=O)NO)cc4)CC3)c2C#N)cn1` [Example 244, (E)-3-(4-(((1-(3′,6-Dicyano-5′-(3-hydroxy-4-morpholinophenyl)-[3,4′-bipyridin]-2′-yl)piperidin-4-yl)amino)methyl)phenyl)-N-hydroxyacrylamide formate], for which the half-maximal inhibitory concentration (IC50) at HDAC1 was determined as 0.51 nM; on LSD1 it was 0.98 nM; on pan-HDAC, 1.54 nM; with NCI-H69 cells it was 1.66 nM; in the assay on NCI-H1417 cells, 2.83 nM; in the assay on NCI-H526 cells, 16.2 nM.
In the case of `COc1ccc(-c2cnc(N3CCC(NCc4ccc(/C=C/C(=O)NO)cc4)CC3)c(C#N)c2-c2cnc(C#N)c(C)c2)cc1O` [Example 247, (E)-3-(4-(((1-(3′,6-Dicyano-5′-(3-hydroxy-4-methoxyphenyl)-5-methyl-[3,4′-bipyridin]-2′-yl)piperidin-4-yl)amino)methyl)phenyl)-N-hydroxyacrylamide formate], the IC50 on HDAC1 was 0.84 nM; on LSD1, 3.49 nM; against pan-HDAC, 0.87 nM; in the assay on NCI-H69 cells it was 3.17 nM; in the assay on NCI-H1417 cells it was 4.93 nM; in the assay on NCI-H526 cells it was 7.56 nM.
On to `COc1ccc(-c2cnc(N3CCC(NCc4ccc(/C=C/C(=O)NO)cc4)CC3)c(C#N)c2-c2ccc([N+](=O)[O-])nc2)cc1O` [Example 248, (E)-3-(4-(((1-(3′-Cyano-5′-(3-hydroxy-4-methoxyphenyl)-6-nitro-[3,4′-bipyridin]-2′-yl)piperidin-4-yl)amino)methyl)phenyl)-N-hydroxyacrylamide formate], for which the 50% inhibitory concentration (IC50) is 0.61 nM on HDAC1; 0.81 nM against LSD1; 0.62 nM against pan-HDAC; 3.94 nM in the assay with NCI-H69 cells; 5.33 nM in the assay with NCI-H1417 cells; 9.06 nM with NCI-H526 cells.

The record behind these values is patent publication US20250304549A1, “HYDROXYAMIDE DERIVATIVE AND USE THEREOF” (SICHUAN HUIYU PHARMACEUTICAL CO., LTD., priority 2022, published 2025).
